Reference: patent publication US20220125959A1, “PROSTATE-SPECIFIC MEMBRANE ANTIGEN (PSMA) INHIBITORS AS DIAGNOSTIC AND RADIONUCLIDE THERAPEUTIC AGENTS” (FIVE ELEVEN PHARMA INC., priority 2019, published 2022)
Values joined by “and” are separate entries in the source; they are usually repeats but may differ in a detail not shown here. Identical values can stand only once.

Assays:
[1] = Stability of injected doses after formulation; assay type: physicochemical; conditions: at 48 hr after formulation
Description: ^68Ga labeling: To 15 nmole ligand 4 (1 mg/mL DMSO) were added 20 μL of 2.0 N NaOAc, 500 μL ^68Ga-solution (2.25 mCi). The reaction was heated in a heating block at 90° C. for 10 minutes in a 3 mL closed vial. After cooling, the sample was analyzed by HPLC (HPLC: Eclise XDB C18 150×4.6 mm, gradient, 2 mL/min; A: 0.1% TFA in water; B: 0.1% TFA in ACN: 0-2 min 100% A; 2-4 min: from 0% to 100% B; 4-9 min: 100% B; 9-10 min: from 100% to 0% B). Radiochemical purity of [^68Ga]4 was >99% RCP (FIG. 1) and injected doses were stable at 2 hr after formulation.
(§1) ^177Lu labeling: To 10 μg ligand (1 mg/mL DMSO) were added 15 μL of 2.0 N NaOAc, 400 μL 0.05 N HCl, and 20 μL ^177Lu-solution (780 μCi (Capintec setting 450 (reading×10)). The reaction was heated with a heating block at 95° C. for 1 hour in a 3 mL closed vial. After cooling, the sample was analyzed by HPLC (HPLC: Eclipse XDB-C18 150×4.6 mm, gradient, 1 mL/min; A: 0.1% TFA in water; B: 0.1% TFA in ACN: 0-4 min A/B 85/15%; 4-11 min: from 85/15 to 30/70%; 11-14 min: from 30/70% to 85/15%). Radiochemical purity of [^177Lu]4 (FIG. 2) and [^177Lu]7 was >98% and injected doses were stable at 48 hr after formulation.
(§2) For iv injection 150 μL of labeled solution was diluted with saline to 3.75mL. Mice were injected with 150 μL of formulated dose. Injected radioactivity was 100 μCi and PSMA ligand amount was constant at 0.72 nmole/mouse.

[2] = system: PSMA-negative cell line, PC3; assay: In vitro cell uptake, PC3 cells; assay type: cell-based; conditions: PC3 (do not express PSMA), 60 min
Description: (§3) To determine the cell uptakes of the [^177Lu] labelled ligands, 5×10^5 cells/well were grown in 12-well plates in 1 mL of medium for 48 h. The cells were washed twice with PBS, and 900 μL fresh media were added. Radiolabelled ligand was added and the PSMA-inhibitor (2-PMPA) was applied in a final concentration of 10 μM to determine unspecific binding. All samples were prepared in triplicate. Following the incubation at 37° C., cells were washed twice to remove unbound activity and afterwards lysed in 1 mL of 0.5 M NaOH. Activity was measured in a gamma counter. Aliquots of the solution added to the cells were also measured for the calculation of the cellular uptake as % ID.

[3] = system: PC3-PIP (PSMA positive) and PC-3 tumors (PSMA negative); assay: Biodistribution of 177Lu labeled compounds 4 and 7 in tumor bearing nude mice; assay type: in vivo, CD-1 male nude mice
Description: as §1, §2
Biodistribution of [^68Ga]4, [^177Lu]4 and [^177Lu]7 was determined in nude mice bearing PIP PC3 (PSMA positive) and PC3 (PSMA negative) tumors on the left and right shoulder, respectively, over a period of 192 h (Table 3a, 3b and 3c). […] The uptake in PC3 tumors (PSMA negative) of both ligands, [^177Lu]4 and [^177Lu]7, was clearly much lower than those of PC-3 PIP tumors (PSMA positive).

[4] = system: PSMA-positive cell line, PIP PC3; assay: In vitro cell uptake, PIP PC3 cells; assay type: cell-based
Description: as §3, with “Radiolabelled ligand was added and the PSMA-inhibitor (2-PMPA) was applied in a final concentration of 10 μM to determine unspecific binding.” left out

Compound: O=C(O)CCC(C(=O)O)N1CCN(CC(=O)O)CCN(C(CCC(=O)NCC(=O)N[C@@H](Cc2ccc(OCC(=O)N[C@@H](Cc3ccccc3)C(=O)NCCCC[C@H](NC(=O)N[C@@H](CCC(=O)O)C(=O)O)C(=O)O)cc2)C(=O)O)C(=O)O)CCN(CC(=O)O)CC1.[177Lu] (stereo partly shown) [[^177Lu]4]
- Stability of injected doses [1]: stable
- In vitro cell uptake [2]: 0.4 % ID per 5 × 10^5 cells
- Biodistribution: Blood ([3]; 1 hr): 0.27 ± 0.07 % dose/g
- Biodistribution: Bone ([3]; 1 hr): 0.15 ± 0.05 % dose/g
- Biodistribution: Brain ([3]; 1 hr): 0.02 ± 0.01 % dose/g
- Biodistribution: Heart ([3]; 1 hr): 0.17 ± 0.03 % dose/g
- Biodistribution: Intestine ([3]; 1 hr): 0.19 ± 0.08 % dose/g
- Biodistribution: Kidney ([3]; 1 hr): 45.59 ± 20.51 % dose/g
- Biodistribution: Liver ([3]; 1 hr): 0.18 ± 0.05 % dose/g
- Biodistribution: Lung ([3]; 1 hr): 0.63 ± 0.13 % dose/g
- Biodistribution: Muscle ([3]; 1 hr): 0.18 ± 0.06 % dose/g
- Biodistribution: PC3 tumor ([3]; 1 hr): 1.13 ± 0.61 % dose/g
- Biodistribution: PIP PC3 tumor ([3]; 1 hr): 15.27 ± 2.93 % dose/g
- Biodistribution: Pancreas ([3]; 1 hr): 0.43 ± 0.20 % dose/g
- Biodistribution: Skin ([3]; 1 hr): 0.35 ± 0.07 % dose/g
- Biodistribution: Spleen ([3]; 1 hr): 1.42 ± 1.44 % dose/g
- Biodistribution: Stomach ([3]; 1 hr): 0.20 ± 0.10 % dose/g
- Biodistribution: Blood ([3]; 4 hrs): 0.02 % dose/g and 0.02 ± 0.01 % dose/g
- Biodistribution: Bone ([3]; 4 hrs): 0.05 ± 0.01 % dose/g
- Biodistribution: Brain ([3]; 4 hrs): 0.01 ± 0.00 % dose/g
- Biodistribution: Heart ([3]; 4 hrs): 0.11 ± 0.07 % dose/g
- Biodistribution: Intestine ([3]; 4 hrs): 0.21 ± 0.11 % dose/g
- Biodistribution: Kidney ([3]; 4 hrs): 21.17 ± 5.08 % dose/g
- Biodistribution: Liver ([3]; 4 hrs): 0.09 ± 0.03 % dose/g
- Biodistribution: Lung ([3]; 4 hrs): 0.20 ± 0.05 % dose/g
- Biodistribution: Muscle ([3]; 4 hrs): 0.05 ± 0.01 % dose/g
- Biodistribution: PC3 tumor ([3]; 4 hrs): 0.28 ± 0.08 % dose/g
- Biodistribution: PIP PC3 tumor ([3]; 4 hrs): 22.38±3.50 % dose/g
- Biodistribution: Pancreas ([3]; 4 hrs): 0.18 ± 0.10 % dose/g
- Biodistribution: Skin ([3]; 4 hrs): 0.12 ± 0.05 % dose/g
- Biodistribution: Spleen ([3]; 4 hrs): 0.53 ± 0.26 % dose/g
- Biodistribution: Stomach ([3]; 4 hrs): 0.12 ± 0.02 % dose/g
- Biodistribution: Blood ([3]; 24 hrs (1 day)): 0.002 ± 0.000 % dose/g
- Biodistribution: Bone ([3]; 24 hrs (1 day)): 0.022 ± 0.010 % dose/g
- Biodistribution: Brain ([3]; 24 hrs (1 day)): 0.006 ± 0.001 % dose/g
- Biodistribution: Heart ([3]; 24 hrs (1 day)): 0.011 ± 0.002 % dose/g
- Biodistribution: Intestine ([3]; 24 hrs (1 day)): 0.132 ± 0.114 % dose/g
- Biodistribution: Kidney ([3]; 24 hrs (1 day)): 2.291 ± 0.761 % dose/g
- Biodistribution: Liver ([3]; 24 hrs (1 day)): 0.036 ± 0.003 % dose/g
- Biodistribution: Lung ([3]; 24 hrs (1 day)): 0.024 ± 0.005 % dose/g
- Biodistribution: Muscle ([3]; 24 hrs (1 day)): 0.012 ± 0.003 % dose/g
- Biodistribution: PC3 tumor ([3]; 24 hrs (1 day)): 0.071 ± 0.010 % dose/g
- Biodistribution: PIP PC3 tumor ([3]; 24 hrs (1 day)): 11.29 ± 2.62 % dose/g
- Biodistribution: Pancreas ([3]; 24 hrs (1 day)): 0.015 ± 0.004 % dose/g
- Biodistribution: Skin ([3]; 24 hrs (1 day)): 0.059 ± 0.029 % dose/g
- Biodistribution: Spleen ([3]; 24 hrs (1 day)): 0.047 ± 0.005 % dose/g
- Biodistribution: Stomach ([3]; 24 hrs (1 day)): 0.076 ± 0.026 % dose/g
- Biodistribution: Blood ([3]; 48 hrs (2 days)): 0.003 ± 0.002 % dose/g
- Biodistribution: Bone ([3]; 48 hrs (2 days)): 0.030 ± 0.010 % dose/g
- Biodistribution: Brain ([3]; 48 hrs (2 days)): 0.006 ± 0.002 % dose/g
- Biodistribution: Heart ([3]; 48 hrs (2 days)): 0.010 ± 0.000 % dose/g
- Biodistribution: Intestine ([3]; 48 hrs (2 days)): 0.059 ± 0.036 % dose/g
- Biodistribution: Kidney ([3]; 48 hrs (2 days)): 2.359 ± 1.504 % dose/g
- Biodistribution: Liver ([3]; 48 hrs (2 days)): 0.069 ± 0.067 % dose/g
- Biodistribution: Lung ([3]; 48 hrs (2 days)): 0.032 ± 0.028 % dose/g
- Biodistribution: Muscle ([3]; 48 hrs (2 days)): 0.006 ± 0.003 % dose/g
- Biodistribution: PC3 tumor ([3]; 48 hrs (2 days)): 0.080 ± 0.034 % dose/g
- Biodistribution: PIP PC3 tumor ([3]; 48 hrs (2 days)): 13.98 ± 6.41 % dose/g
- Biodistribution: Pancreas ([3]; 48 hrs (2 days)): 0.011 ± 0.001 % dose/g
- Biodistribution: Skin ([3]; 48 hrs (2 days)): 0.034 ± 0.015 % dose/g
- Biodistribution: Spleen ([3]; 48 hrs (2 days)): 0.133 ± 0.173 % dose/g
- Biodistribution: Stomach ([3]; 48 hrs (2 days)): 0.032 ± 0.014 % dose/g
- Biodistribution: Blood ([3]; 96 hrs (4 days)): 0.001 ± 0.000 % dose/g
- Biodistribution: Bone ([3]; 96 hrs (4 days)): 0.043 ± 0.038 % dose/g
- Biodistribution: Brain ([3]; 96 hrs (4 days)): 0.006 ± 0.001 % dose/g
- Biodistribution: Heart ([3]; 96 hrs (4 days)): 0.011 ± 0.006 % dose/g
- Biodistribution: Intestine ([3]; 96 hrs (4 days)): 0.040 ± 0.028 % dose/g
- Biodistribution: Kidney ([3]; 96 hrs (4 days)): 0.623 ± 0.072 % dose/g
- Biodistribution: Liver ([3]; 96 hrs (4 days)): 0.031 ± 0.003 % dose/g
- Biodistribution: Lung ([3]; 96 hrs (4 days)): 0.020 ± 0.009 % dose/g
- Biodistribution: Muscle ([3]; 96 hrs (4 days)): 0.006 ± 0.002 % dose/g
- Biodistribution: PC3 tumor ([3]; 96 hrs (4 days)): 0.047 ± 0.012 % dose/g
- Biodistribution: PIP PC3 tumor ([3]; 96 hrs (4 days)): 6.90 ± 1.87 % dose/g
- Biodistribution: Pancreas ([3]; 96 hrs (4 days)): 0.022 ± 0.011 % dose/g
- Biodistribution: Skin ([3]; 96 hrs (4 days)): 0.032 ± 0.019 % dose/g
- Biodistribution: Spleen ([3]; 96 hrs (4 days)): 0.033 ± 0.015 % dose/g
- Biodistribution: Stomach ([3]; 96 hrs (4 days)): 0.030 ± 0.002 % dose/g
- Biodistribution: Blood ([3]; 192 hrs (8 days)): 0.001 ± 0.000 % dose/g
- Biodistribution: Bone ([3]; 192 hrs (8 days)): 0.042 ± 0.035 % dose/g
- Biodistribution: Brain ([3]; 192 hrs (8 days)): 0.003 ± 0.001 % dose/g
- Biodistribution: Heart ([3]; 192 hrs (8 days)): 0.005 ± 0.000 % dose/g
- Biodistribution: Intestine ([3]; 192 hrs (8 days)): 0.162 ± 0.087 % dose/g
- Biodistribution: Kidney ([3]; 192 hrs (8 days)): 0.177 ± 0.009 % dose/g
- Biodistribution: Liver ([3]; 192 hrs (8 days)): 0.021 ± 0.005 % dose/g
- Biodistribution: Lung ([3]; 192 hrs (8 days)): 0.006 ± 0.003 % dose/g
- Biodistribution: Muscle ([3]; 192 hrs (8 days)): 0.003 ± 0.003 % dose/g
- Biodistribution: PC3 tumor ([3]; 192 hrs (8 days)): 0.022 ± 0.002 % dose/g
- Biodistribution: PIP PC3 tumor ([3]; 192 hrs (8 days)): 4.21 ± 1.03 % dose/g
- Biodistribution: Pancreas ([3]; 192 hrs (8 days)): 0.003 ± 0.001 % dose/g
- Biodistribution: Skin ([3]; 192 hrs (8 days)): 0.011 ± 0.003 % dose/g
- Biodistribution: Spleen ([3]; 192 hrs (8 days)): 0.032 ± 0.010 % dose/g
- Biodistribution: Stomach ([3]; 192 hrs (8 days)): 0.209 ± 0.131 % dose/g
- Uptake in PC3 tumors (PSMA negative) versus PC-3 PIP tumors (PSMA positive) ([3]; mouse, in vivo): much lower
- Uptakes compared with reference ligand [177Lu]PSMA-617 ([4]; PIP PC3): much higher uptakes
- In vitro cell uptake ([4]; PIP PC3, 5 min): 4.0 % ID per 5 × 10^5 cells
- In vitro cell uptake ([4]; PIP PC3, 15 min): 7.5 % ID per 5 × 10^5 cells
- In vitro cell uptake ([4]; PIP PC3, 30 min): 11.2 % ID per 5 × 10^5 cells
- In vitro cell uptake ([4]; PIP PC3, 60 min): 13.4 % ID per 5 × 10^5 cells
- In vitro cell uptake ([4]; PIP PC3, 60 min, with PSMA inhibitor (2-PMPA, 2 uM)): 0.9 % ID per 5 × 10^5 cells
- In vitro cell uptake ([4]; PIP PC3, 120 min): 14.9 % ID per 5 × 10^5 cells
